Source: PubChem BioAssay AID1963977 (Molecular Pharmacology Branch, DTP, NCI, 2024)

Test system: 624824-186-R-J3-PDC multicell spheroids, viability
Assay: Anticancer human tumor 624824-186-R-J3-PDC patient-derived colon adenocarcinoma cell line growth inhibition [PI3K]
Settings: for IC50: curve of first compound; for viability, T/C: stronger effect = lower value; active = viability on the fitted dose curve at most 10% of control; inactive = the rest
Procedure, shortened: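 Viability of mixed-cell spheroids was determined after exposure to pairwise combinations, one partner being inavolisib, alpelisib, duvelisib or copanlisib. Highest tested concentration matched clinical Cmax where known and 10 microM where not, descending in half-log steps.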

[1] = second compound 0.00316 µM, first compound 0.0316 µM
[2] = second compound 0.00316 µM, first compound 0.1 µM
[3] = second compound 0.00316 µM, first compound 0.316 µM
[4] = second compound 0.00316 µM, first compound 1 µM
[5] = second compound 0.00316 µM, first compound 3.16 µM
[6] = second compound 0.00316 µM, first compound 10 µM
[7] = second compound 0.01 µM, first compound 0.0316 µM
[8] = second compound 0.01 µM, first compound 0.1 µM
[9] = second compound 0.01 µM, first compound 0.316 µM
[10] = second compound 0.01 µM, first compound 1 µM
[11] = second compound 0.01 µM, first compound 3.16 µM
[12] = second compound 0.01 µM, first compound 10 µM
[13] = second compound 0.0316 µM, first compound 0.0316 µM
[14] = second compound 0.0316 µM, first compound 0.1 µM
[15] = second compound 0.0316 µM, first compound 0.316 µM
[16] = second compound 0.0316 µM, first compound 1 µM
[17] = second compound 0.0316 µM, first compound 3.16 µM
[18] = second compound 0.0316 µM, first compound 10 µM
[19] = second compound 0.1 µM, first compound 0.0316 µM
[20] = second compound 0.1 µM, first compound 0.1 µM
[21] = second compound 0.1 µM, first compound 0.316 µM
[22] = second compound 0.1 µM, first compound 1 µM
[23] = second compound 0.1 µM, first compound 3.16 µM
[24] = second compound 0.1 µM, first compound 10 µM
[25] = second compound 0.316 µM, first compound 0.0316 µM
[26] = second compound 0.316 µM, first compound 0.1 µM
[27] = second compound 0.316 µM, first compound 0.316 µM
[28] = second compound 0.316 µM, first compound 1 µM
[29] = second compound 0.316 µM, first compound 3.16 µM
[30] = second compound 0.316 µM, first compound 10 µM
[31] = second compound 1 µM, first compound 0.0316 µM
[32] = second compound 1 µM, first compound 0.1 µM
[33] = second compound 1 µM, first compound 0.316 µM
[34] = second compound 1 µM, first compound 1 µM
[35] = second compound 1 µM, first compound 3.16 µM
[36] = second compound 1 µM, first compound 10 µM
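Also: spheroids exposed to agents for seven days before luminescence read.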
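For viability, T/C in this document: luminescent signal used as a stand-in for spheroid viability; percent viability relative to DMSO vehicle control wells taken as 100%.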

CCCS(=O)(=O)Nc1ccc(F)c(C(=O)c2c[nH]c3ncc(-c4ccc(Cl)cc4)cc23)c1F + COc1c(OCCCN2CCOCC2)ccc2c3n(c(=NC(=O)c4cnc(N)nc4)nc12)CCN3
inactive: viability, T/C [1] 87.3% | viability, T/C [2] 103% | viability, T/C [3] 114% | viability, T/C [4] 96.9% | viability, T/C [5] 82.5% | viability, T/C [6] 10.3% | viability, T/C [7] 102% | viability, T/C [8] 102% | viability, T/C [9] 84.8% | viability, T/C [10] 74.8% | viability, T/C [11] 61.5% | viability, T/C [12] 13.6% | viability, T/C [13] 95.7% | viability, T/C [14] 86.3% | viability, T/C [15] 65.4% | viability, T/C [16] 67% | viability, T/C [17] 42.6% | viability, T/C [18] 16.1% | viability, T/C [19] 74.7% | viability, T/C [20] 66% | viability, T/C [21] 46.4% | viability, T/C [22] 37.7% | viability, T/C [23] 27.5% | viability, T/C [24] 9.08% | viability, T/C [25] 44% | viability, T/C [26] 37.5% | viability, T/C [27] 31.8% | viability, T/C [28] 24.1% | viability, T/C [29] 17.2% | viability, T/C [31] 29% | viability, T/C [32] 27.1% | viability, T/C [33] 20.4% | viability, T/C [34] 17.2% | viability, T/C [35] 12.5%
< 31.6 nM: IC50 (second compound 0.316 µM) | IC50 (second compound 1 µM)
5310 nM: IC50 (second compound 0.00316 µM)
3710 nM: IC50 (second compound 0.01 µM)
1870 nM: IC50 (second compound 0.0316 µM)
331 nM: IC50 (second compound 0.1 µM)
active: viability, T/C [30] 8.93% | viability, T/C [36] 6.57%

C[C@@H](NC(=O)c1ncnc(N)c1Cl)c1ncc(C(=O)Nc2cc(C(F)(F)F)c(Cl)cn2)s1 + COc1c(OCCCN2CCOCC2)ccc2c3n(c(=NC(=O)c4cnc(N)nc4)nc12)CCN3
> 10000 nM: IC50 (second compound 0.00316 µM) | IC50 (second compound 0.01 µM) | IC50 (second compound 0.0316 µM)
inactive: viability, T/C [1] 108% | viability, T/C [2] 114% | viability, T/C [3] 109% | viability, T/C [4] 103% | viability, T/C [5] 99% | viability, T/C [6] 85.8% | viability, T/C [7] 107% | viability, T/C [8] 97.9% | viability, T/C [9] 95.6% | viability, T/C [10] 96.2% | viability, T/C [11] 92.5% | viability, T/C [12] 80.2% | viability, T/C [13] 91.3% | viability, T/C [14] 103% | viability, T/C [15] 91.5% | viability, T/C [16] 99.1% | viability, T/C [17] 76.8% | viability, T/C [18] 52.1% | viability, T/C [19] 88.2% | viability, T/C [20] 82.1% | viability, T/C [21] 78.3% | viability, T/C [22] 76.9% | viability, T/C [23] 54.1% | viability, T/C [24] 38.5% | viability, T/C [25] 54.4% | viability, T/C [26] 60.6% | viability, T/C [27] 59.2% | viability, T/C [28] 41% | viability, T/C [29] 28.5% | viability, T/C [30] 23.1% | viability, T/C [31] 32.9% | viability, T/C [32] 31.5% | viability, T/C [33] 31% | viability, T/C [34] 25% | viability, T/C [35] 20.3% | viability, T/C [36] 14.8%
< 31.6 nM: IC50 (second compound 1 µM)
4440 nM: IC50 (second compound 0.1 µM)
538 nM: IC50 (second compound 0.316 µM)

Cn1ncnc1[C@H]1c2n[nH]c(=O)c3cc(F)cc(c23)N[C@@H]1c1ccc(F)cc1 + COc1c(OCCCN2CCOCC2)ccc2c3n(c(=NC(=O)c4cnc(N)nc4)nc12)CCN3
> 100 nM: IC50 (second compound 0.00316 µM) | IC50 (second compound 0.01 µM) | IC50 (second compound 0.0316 µM) | IC50 (second compound 0.1 µM)
< 0.316 nM: IC50 (second compound 0.316 µM) | IC50 (second compound 1 µM)
inactive: viability, T/C (second compound 0.00316 µM, first compound 0.000316 µM) 103% | viability, T/C (second compound 0.00316 µM, first compound 0.001 µM) 97.5% | viability, T/C (second compound 0.00316 µM, first compound 0.00316 µM) 102% | viability, T/C (second compound 0.00316 µM, first compound 0.01 µM) 96.3% | viability, T/C [1] 90.1% | viability, T/C [2] 102% | viability, T/C (second compound 0.01 µM, first compound 0.000316 µM) 115% | viability, T/C (second compound 0.01 µM, first compound 0.001 µM) 110% | viability, T/C (second compound 0.01 µM, first compound 0.00316 µM) 102% | viability, T/C (second compound 0.01 µM, first compound 0.01 µM) 93.1% | viability, T/C [7] 97.1% | viability, T/C [8] 107% | viability, T/C (second compound 0.0316 µM, first compound 0.000316 µM) 91.1% | viability, T/C (second compound 0.0316 µM, first compound 0.001 µM) 103% | viability, T/C (second compound 0.0316 µM, first compound 0.00316 µM) 88.5% | viability, T/C (second compound 0.0316 µM, first compound 0.01 µM) 90.8% | viability, T/C [13] 87.2% | viability, T/C [14] 97.3% | viability, T/C (second compound 0.1 µM, first compound 0.000316 µM) 77.1% | viability, T/C (second compound 0.1 µM, first compound 0.001 µM) 76% | viability, T/C (second compound 0.1 µM, first compound 0.00316 µM) 83.1% | viability, T/C (second compound 0.1 µM, first compound 0.01 µM) 73.3% | viability, T/C [19] 75.3% | viability, T/C [20] 71% | viability, T/C (second compound 0.316 µM, first compound 0.000316 µM) 48.3% | viability, T/C (second compound 0.316 µM, first compound 0.001 µM) 48.3% | viability, T/C (second compound 0.316 µM, first compound 0.00316 µM) 54% | viability, T/C (second compound 0.316 µM, first compound 0.01 µM) 44.9% | viability, T/C [25] 48.7% | viability, T/C [26] 46% | viability, T/C (second compound 1 µM, first compound 0.000316 µM) 27.3% | viability, T/C (second compound 1 µM, first compound 0.001 µM) 28% | viability, T/C (second compound 1 µM, first compound 0.00316 µM) 30.1% | viability, T/C (second compound 1 µM, first compound 0.01 µM) 25.9% | viability, T/C [31] 23.9% | viability, T/C [32] 27%
